# Assay results taken from article PMC3884839, “Pharmacokinetics and pharmacodynamics utilizing unbound target tissue exposure as part of a disposition-based rationale for lead optimization of benzoxaboroles in the treatment of Stage 2 Human African Trypanosomiasis” (Parasitology, 2013).
# Experiments:
# [1] = Binding to human plasma protein by rapid equilibrium dialysis; assay type: in vitro ADME; details: 1 μg mL^−1
# Experimental: Binding to plasma proteins, brain homogenates or proteins in serum-fortified HMI-9 media was determined by rapid equilibrium dialysis (RED) (Pierce, Rockford, IL) using a 48-well plate-based format according to the manufacturer's instructions. Briefly, test compound was added to fresh plasma (Bioreclamation, Liverpool, NY) at the required concentrations, freshly prepared brain homogenate or media. Duplicate aliquots of each sample were transferred into the sample chambers of the RED devices, and dialysis buffer (BupH PBS) was added to the buffer chambers. The plates were sealed and incubated at 37 °C for 4 h. After dialysis, samples collected from the buffer and tissue chambers were treated with ice-cold methanol (3 volumes for plasma or HMI-9 media, 4 volumes for brain) to precipitate proteins. The treated samples were centrifuged for 10 min at approximately 3000 g at 15 °C. The supernatants were assayed for test compound by LC-MSMS. Calibration standards and quality control samples were prepared in matched matrix and assayed with samples. Values for unbound and bound fractions and mass balance were calculated. Concordance of binding for each batch of plasma was confirmed by assay of warfarin, imipramine and carbamezapine. Acceptance criterion for mass balance was 70–120%.
# [2] = test system: MDCKII-hMDR1 monolayer (Pgp efflux transporter); assay: MDCKII-hMDR1 monolayer permeability and Pgp-mediated efflux; assay type: in vitro ADME
# Experimental: The propensity of test compounds to cross the BBB was examined using an in vitro MDCKII-hMDR1 monolayer assay (Polli et al. [2001]). In summary, MDCKII-hMDR1 cells (Netherlands Cancer Institute, Amsterdam, the Netherlands) were seeded at a density of 3×10^5 cells per well onto microporous polycarbonate membranes in 12 well Costar Transwell plates (Corning Inc., Lowell, MA). The cells were incubated for 3 days during which time they formed confluent monolayers. Trans-epithelial resistance (TEER) was measured for each insert to ensure the integrity of the monolayer (acceptable TEER >160 Ω cm^2). The permeability and susceptibility for Pgp-mediated efflux was evaluated by adding each compound at a concentration of 3 μM, in the presence or absence of 2 μM GF120918 (a potent Pgp inhibitor), to the apical compartment. Competency of the Pgp efflux transporter was confirmed by assay of propranolol (non-substrate) and amprenavir (substrate). Cell monolayers were incubated in triplicate with shaking (160 rpm) at 37 °C in a 5% CO2-enriched humidified atmosphere for 1 h. Samples were removed from the apical and basolateral compartments after incubation and assayed for test compound concentrations by LC-MSMS. Values for mass balance, PappA−B, PappA−B+GF918, and absorption quotient (AQ) were calculated for each compound (Troutman and Thakker, [2003]; Thiel-Demby et al. [2004]). Acceptance criterion for mass balance was 70–120%.
# [3] = Single oral dose pharmacokinetics and CNS penetration in male CD-1 mice; assay type: in vivo, mouse
# Experimental: The CNS disposition and pharmacokinetics of the benzoxaboroles were evaluated in infected and uninfected mice following oral administration. In vivo phases of single-dose rodent PK studies were performed at Vivisource (Waltham, MA) following Institutional Animal Care and Use Committee (IACUC) review in an Association for Assessment and Accreditation of Laboratory Animal Care International (AAALAC)-approved facility. Studies in Trypanosoma brucei brucei (TREU 667 strain) infected mice, or uninfected satellite animals, were performed after IACUC review at Pace University (NewYork, NY).
# Male CD-1 or female Swiss Webster mice (approximately 25 g) were administered test compounds by oral gavage either once (QD) or twice per day (Q12 h) with doses ranging between 6 and 100 mg kg^−1 as described below. All compounds were formulated as an in situ sodium salt in 2% (v/v) ethanol, 5% (m/v) dextrose, to yield typically clear colourless solutions that were administered at 4 mL kg^−1. Blood samples for pharmacokinetic studies were collected into polypropylene tubes containing K2EDTA anticoagulant and stored on wet ice until centrifuged and processed to plasma. Plasma was stored at −80 °C. Blood samples from mice were collected via cardiac puncture under terminal anaesthesia. Rodents were euthanized in a CO2 chamber before collection of terminal blood or tissue samples. Brain tissues were blotted dry and stored at approximately −80 °C.
# Plasma (50 μL) was treated with 4 volumes of ice-cold methanol (containing 25 ng mL^−1 of either deuterium (d6)-labelled SCYX-7158 internal standard (SCYX-5232) for SCYX-7158 analyses or a related benzoxaborole for other compounds) to precipitate proteins. Treated samples were gently mixed on a 96-well plate shaker for approximately 10 min then centrifuged at approximately 3000 g and 15 °C for 15 min. Supernatants were transferred to fresh 96-well plates for analysis by means of LC-MSMS. Samples of tissue homogenate (50 μL), or buffer from protein binding studies, were treated similarly to plasma samples.
# All biological samples were assayed by a verified LC-MSMS method employing two dimensional chromatographic separation to overcome ion suppression (Annesely, [2003]) caused by co-elution of endogenous components with benzoxaboroles. In summary, treated samples were loaded onto Phenomenex (Torrance, CA) Synergi Polar RP, 4 μ, 50×2 mm extraction columns and subsequently back-eluted onto a Phenomenex Luna C8(2) 3 μ, 50×2 mm analytical columns protected by a Phenomenex C8 guard cartridge. Mobile phases for extraction and analytical columns consisted of 5 mM ammonium formate and 0·1% (v/v) formic acid in water (A), and 5 mM ammonium formate and 0·1% (v/v) formic acid in methanol (B). […]
compound,measurement,setting,value
CC1(C)OB(O)c2cc(NC(=O)c3ccc(F)cc3C(F)(F)F)ccc21 [SCYX-7158],Mass balance,[1],110%
same,P-gp classification,[2],Non-substrate
same,Mass balance A–B+GF918,"[2]; 3 μM, with GF918",75%
same,Mass balance A–B,"[2]; 3 μM, without GF918",79%
same,time CNS (brain) total concentration above MIC,[3],~20 h
